Reference: publication PMC8507260, “A2E-induced inflammation and angiogenesis in RPE cells in vitro are modulated by PPAR-α, -β/δ, -γ, and RXR antagonists and by norbixin” (Aging (Albany NY), 2021)

Experiments:
[1] = test system: IL-8; assay: IL-8 mRNA expression by quantitative RT-PCR in porcine RPE cells; assay type: cell-based; conditions: A2E 20 μM; MK886 1 μM, GSK3787 1 μM, T007907 10 μM, HX531 5 μM
Description: (§1) Pig eyes were obtained from a local slaughterhouse and transported to the laboratory in ice-cold Ringer solution. After removal of the anterior segment of the eye, the vitreous and neural retina was separated from the RPE and removed. The eyecup was washed twice with phosphate buffer saline (PBS), filled with trypsin (0.25% in PBS) and incubated at 37°C for 1.5 h. RPE cells were harvested by gently pipetting, centrifuged to remove trypsin and re-suspended in Dulbecco’s Modified Eagle Medium (DMEM) supplemented with 20% (v/v) foetal-calf serum (DMEM20%FCS) and 0.1% gentamycin. Cells were seeded into 60 mm diameter Petri dishes, cultured in an atmosphere of 5% CO2/95% air at 37°C, and supplied with fresh medium after 24 hours and 4 days in vitro. For experiments aimed at measuring mRNA or protein expression in RPE, cells were trypsinized after one week in culture and transferred to 24-well or 6-well plates at a density of 1.5 × 10^5 cells/cm^2 in DMEM2%FCS. Norbixin or agonists were added to the medium 24 h after seeding, and antagonists were added to the medium 24 h later. A2E treatment was performed during 19 h before cellular sample preparation. All the drugs used in these experiments were prepared as stock solutions in DMSO.
(§2) Total RNA was extracted using the NucleoSpin® RNA kit according to manufacturer’s instructions. RT of 500 ng of RNA was performed using the SuperScript III Reverse Transcriptase following the manufacturer’s instructions. Five ng of cDNA were amplified using the SYBR GREEN real-time PCR method. PCR primers for target genes and housekeeping gene GAPDH were designed using Primer3Plus Bioinformatic software (Table 2). The RT-PCR using the StepOne Plus (Life Technologies, Carlsbad, CA, USA) consisted of incubation at 50°C for 5 min followed by 40 cycles of 95°C for 15 s and of 60°C for 1 min. The reaction was completed by a melt curve stage at 95°C for 15 s, 60°C for 1 min, 95°C for 15 s and a final step at 60°C for 15 s. The relative mRNA expression was calculated using the comparative threshold method (Ct-method) with GAPDH for normalization. All experimental conditions were processed in triplicate and each experiment was done at least 3 times.

[2] = test system: PPAR; assay: Endogenous PPAR transactivation, luciferase reporter in primary porcine RPE cells; assay type: cell-based; conditions: A2E 20 μM; for effect on endogenous PPAR transactivation induced by A2E: MK886 1 μM, GSK3787 1 μM, T007907 10 μM, separately or as mixture
Description: as §1
(§3) After one week in culture, cells were trypsinized and transferred to a 96-well plate at a density of 6 × 10^4 cells/cm^2 in DMEM2%FCS. The next day, cells were transfected using the Cignal Reporter Assay Kits for PPAR, RXR, AP-1 and NF-κB, according to the manufacturer’s specifications. To measure the specific activation of PPAR isoforms, cells were also co-transfected with PPAR-α, PPAR-β/δ or PPAR-γ expression vectors. Transfection was performed with Lipofectamine and Plus Reagent in serum-free medium. 3 h after the transfection, the medium was replaced and treatments with the molecules to assay were performed. Luciferase activity was measured the next day using the Dual-Luciferase Reporter Assay System. The measurements were performed with a luminometer (Infinite M1000 from Tecan, Mannedorf, Switzerland). Firefly: Renilla activity ratios were calculated for each condition and ratios from transcription factor-responsive reporter transfections were divided by ratios from negative control transfections to obtain relative luciferase unit, as described by the manufacturer. At least 3 independent transfections were performed in triplicate for each condition.

[3] = test system: IL-6; assay: IL-6 mRNA expression by quantitative RT-PCR in porcine RPE cells; assay type: cell-based; conditions: T007907 10 μM; for reduction of IL-6 mRNA expression induced by A2E: NBX 20 μM with A2E 30 μM, MK886 1 μM, GSK3787 1 μM, HX531 5 μM with A2E 20 μM
Description: as §1, §2

[4] = test system: AP-1; assay: AP-1 transactivation, luciferase reporter in porcine RPE cells; assay type: cell-based; conditions: A2E 20 μM; NBX 20 μM, HX531 5 μM
Description: as §1
as §3, with “Transfection was performed with Lipofectamine and Plus Reagent in serum-free medium. 3 h after the transfection, the medium was replaced and treatments with the molecules to assay were performed.” left out, “The measurements were performed with a luminometer (Infinite M1000 from Tecan, Mannedorf, Switzerland).” left out, “At least 3 independent transfections were performed in triplicate for each condition.” left out

[5] = test system: NF-κB; assay: NF-κB transactivation, luciferase reporter in porcine RPE cells; assay type: cell-based; conditions: A2E 20 μM, T007907 10 μM; for inhibition of NF-κB transactivation induced by A2E: NBX 20 μM, HX531 5 μM
Description: as §1, §3

[6] = test system: RXR; assay: Endogenous RXR transactivation, luciferase reporter in porcine RPE cells; assay type: cell-based; conditions: NBX 20 μM
Description: as §1, §3

[7] = test system: VEGF; assay: VEGF mRNA expression by quantitative RT-PCR in porcine RPE cells; assay type: cell-based; conditions: HX531 5 μM + A2E 20 μM
Description: as §1
as §2, with “All experimental conditions were processed in triplicate and each experiment was done at least 3 times.” left out

[8] = test system: PPAR-α; assay: Transactivation of over-expressed PPAR-α, luciferase reporter in porcine RPE cells; assay type: cell-based, pig; conditions: vs DMSO control; A2E 20 μM; NBX increasing concentrations
Description: First, we evaluated the binding profile of A2E to all three isoforms of PPAR. […] Then the effects of A2E on the endogenous PPAR transactivation in porcine RPE cells were investigated by means of a luciferase assay. […] The level of transactivation of PPAR-α, -β/δ, or -γ isoforms by A2E was determined by co-transfection of porcine RPE cells with a plasmid expressing each of the full-length PPAR isoforms and a plasmid expressing luciferase under the control of the PPAR response element. […]. All usual chemicals, primers, and HX531 were from Sigma (St. Louis, MO, USA). Reagents for cell culture, transfection and quantitative RT-PCR were from Thermo Fisher Scientific (Waltham, MA, USA). RNA extraction NucleoSpin® RNA kit was from Macherey Nagel (Düren, Germany). ECL prime and PVDF membrane were from Amersham GE Healthcare (Buckinghamshire, UK). Primary antibodies against the following proteins were used: GAPDH (Santa Cruz Biotechnology, Inc, Dallas, TX, USA); pAKT, AKT, pERK and ERK (Cell Signaling, Danvers, MA, USA). Secondary antibodies were from Jackson ImmunoResearch (Cambridgeshire, UK). […] Cignal Pathway Reporter Assay Kits were from QIAGEN (Frederick, MD, USA). The Dual-Luciferase Reporter Assay System was purchased from Promega (Madison, WI, USA). pcDNA 3.1 (+)-PPARα and pcDNA 3.1 (+)-PPARβ/δ (pig sequence) were purchased from Genscript (Piscataway, NJ, USA). pCMV6-XL4-PPARγ (human sequence) was purchased from Origene (Rockville, MD, USA).
as §3

[9] = target: T1, PPAR-α (Homo sapiens, UniProt Q07869); conditions: stated without reference; cited from earlier work
T1 construct: Eurofins Cerep (contract laboratory that ran the assay)
T1 sequence (Q07869 1-468): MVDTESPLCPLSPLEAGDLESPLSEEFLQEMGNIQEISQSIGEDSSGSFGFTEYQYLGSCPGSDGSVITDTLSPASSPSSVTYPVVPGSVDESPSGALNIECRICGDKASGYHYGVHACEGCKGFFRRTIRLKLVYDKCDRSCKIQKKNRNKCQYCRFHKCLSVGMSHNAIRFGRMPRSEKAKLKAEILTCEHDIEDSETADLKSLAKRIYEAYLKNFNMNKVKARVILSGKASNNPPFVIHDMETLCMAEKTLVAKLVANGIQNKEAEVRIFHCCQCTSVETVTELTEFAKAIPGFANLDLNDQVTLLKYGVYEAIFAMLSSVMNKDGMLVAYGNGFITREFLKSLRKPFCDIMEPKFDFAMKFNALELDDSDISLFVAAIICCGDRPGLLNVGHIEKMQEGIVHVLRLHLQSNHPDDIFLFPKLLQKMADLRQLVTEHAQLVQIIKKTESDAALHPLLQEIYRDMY

Row | Structure (SMILES) | inhibition of IL-8 mRNA expression induced by A2E [1] [%] | effect on endogenous PPAR transactivation induced by A2E [2] | reduction of IL-6 mRNA expression induced by A2E [3] [%] | inhibition of NF-κB transactivation induced by A2E [5] [%] | also measured
1 | O=C(NCCS(=O)(=O)c1ccc(C(F)(F)F)cn1)c1ccc(Cl)cc1 [GSK3787] | 35 | did not significantly inhibit | 45 | – | –
2 | CN1c2ccc([N+](=O)[O-])cc2N=C(c2ccc(C(=O)O)cc2)c2cc3c(cc21)C(C)(C)CCC3(C)C [HX531] | 99.6 | – | 88.6 | 100 | inhibition of AP-1 transactivation induced by A2E [4]: 100%; inhibition of RXR transactivation induced by A2E ([6]; A2E 20 μM, HX531 5 μM): 50.1%; lowering of VEGF mRNA expression induced by A2E [7]: 76.8%; inhibition of endogenous PPAR transactivation induced by A2E ([2]; NBX 20 μM, HX531 5 μM (HX531 effect not significant)): 30%
3 | CC1(C)CCC(C)(C)c2cc3c(cc21)Sc1ccccc1N=C3c1ccc(C(=O)O)cc1 [HX630] | – | – | – | – | transactivation of RXRs by the compound alone ([6]; HX630 5 μM, vs DMSO control): transactivation induced by HX630
4 | O=C(Nc1ccncc1)c1cc([N+](=O)[O-])ccc1Cl [T007907] | 45.9 | did not significantly inhibit | 69.6 | 100 | effect of the compound alone on NF-κB transactivation ([5]; vs DMSO control): inhibited; effect of the compound alone on IL-6 mRNA expression ([3]; vs DMSO control): enhanced
5 | CCCCCCCN(CCc1ccc(SC(C)(C)C(=O)O)cc1)C(=O)Nc1ccc(F)cc1F [GW9578] | – | – | – | – | transactivation of over-expressed PPAR-α by the compound alone [8]: induced transactivation; binding affinity to PPAR-α [9]: nanomolar range
6 | CC(C)c1ccc2c(c1)c(SC(C)(C)C)c(CC(C)(C)C(=O)O)n2Cc1ccc(Cl)cc1 [MK886] | 37 | did not significantly inhibit | 58.7 | – | –
